Results taken from paper PMC8087158 (Angewandte Chemie (International ed. in English), 2021).

Columns and labels:
[1] = system: P. falciparum strain Pf 3D7; test: Growth inhibition of erythrocytic stage P. falciparum Pf 3D7; assay type: cell-based, Plasmodium falciparum
Pf20S β5 [2] = test: Hydrolysis of suc-LLVY-AMC by Pf20S, time courses of inhibition; assay type: biochemical, Plasmodium falciparum
Pf20S β5 [3] = test: Blocking of MV151 labelling of Pf20S β5; assay type: binding, Plasmodium falciparum; conditions: with or without WLW-VS
[4] = system: P. falciparum lab strain Dd2; test: Growth inhibition of Pf Dd2; assay type: cell-based, Plasmodium falciparum
Pf Dd2β6A117D = test: Growth inhibition of proteasome inhibitor-resistant Pf Dd2β6A117D; assay type: cell-based, Plasmodium falciparum; conditions: relative to Dd2
Pf Dd2β5A49S = test: Growth inhibition of proteasome inhibitor-resistant Pf Dd2β5A49S; assay type: cell-based, Plasmodium falciparum; conditions: relative to Dd2
[5] = system: polyubiquitinated proteins in Pf trophozoites; test: Accumulation of polyubiquitinated proteins in parasites; assay type: cell-based, Plasmodium falciparum; conditions: 6-hour exposure, 1 μM
[6] = system: Pf strain HB3 (chloroquine-sensitive); test: Growth inhibition of Pf strain HB3; assay type: cell-based, Plasmodium falciparum
[7] = system: Pf strain 3663 (ART-sensitive); test: Growth inhibition of Pf strain 3663; assay type: cell-based, Plasmodium falciparum
[8] = system: Pf strain 4884 (ART-resistant); test: Growth inhibition of Pf strain 4884; assay type: cell-based, Plasmodium falciparum
[9] = system: artemisinin-sensitive Pf Cam3.I^Rev; test: Modified ring-stage survival assay, combination with DHA, isobologram; assay type: cell-based, Plasmodium falciparum; conditions: 3-h pulse of DHA, continuous TDI-8304 for further 69 h; parasitemia at 72 h
[10] = system: artemisinin-resistant Pf Cam3.I^R539T; test: as above; assay type: cell-based, Plasmodium falciparum; conditions: 3-h pulse of DHA, continuous TDI-8304 for further 69 h; parasitemia at 72 h
[11] = system: P. falciparum Pf3D7^0087/N9; test: Humanized mouse model of Pf infection, parasitemia; assay type: in vivo, NOD-SCID IL-2R-null mice transfused with human erythrocytes; conditions: s.c. 100 mg/kg b.i.d., days 3 – 6 post infection

## O=C(NC1CCCC1)[C@@H]1CCCCOc2cccc(c2)C[C@H](N2CCCC2=O)C(=O)N[C@@H](CCN2CCOCC2)C(=O)N1 [TDI-8304]
[1]
  Potency (EC50) against P. falciparum Pf 3D7, in words: highly potent
[1]; strain not given, used as exposure threshold
  EC90: 29 nM
Pf20S β5 [2]
  t1/2 half-life for the Pf20S:TDI-8304 complex: 14.4 min
Pf20S β5 [2]; induced-fit mechanism
  Inhibition modality: time-dependent inhibition
Pf20S β5 [3]
  Blocking of labelling of Pf20S β5 by MV151: dose-dependently blocked labelling
[4]
  Potency against P. falciparum lab strain Dd2: potent
Pf Dd2β6A117D
  Reduction in potency against Dd2β6A117D: ~ 18 fold
Pf Dd2β5A49S
  EC50 against Dd2β5A49S compared with Dd2: comparable
[5]
  Accumulation of polyubiquitinated proteins: accumulation of polyubiquitinated proteins
[6]
  Activity against Pf strain HB3: comparable activity
[7]
  Activity against Pf strain 3663: comparable activity
[8]
  Activity against Pf strain 4884: comparable activity
[9]
  Interaction with DHA (isobologram): synergistic killing
[10]
  Interaction with DHA (isobologram): synergistic killing
[11]
  Reduction of parasitemia, one mouse: 2 log10
